Experimental data: publication PMC8647499, “Preclinical evaluation of strasseriolides A–D, potent antiplasmodial macrolides isolated from Strasseria geniculata CF-247,251” (Malaria Journal, 2021)
“And” between values parts separate entries of the source, which are not always exact repeats. Identical values can stand only once.

Assays:
[1] = Quantification of compounds in mice plasma by LC-MS-MS and PK parameters after i.v. injection; type: in vivo; conditions: mouse, in vivo, iv, 25 mg/kg
Method: (§1) Three Balb/C mice (6–8 weeks old) were intravenously injected with 25 mg/kg of strasseriolide D dissolved in 200 µL of vehicle (0.5%HPMC, 0.5% Tween 80 and 0.5% Benzyl alcohol in water). Blood samples were collected by pricking the […] on the leg of each mouse at time points 1.5 (T 1.5 h), 5 (T 5 h) and 24 h (T 24 h). From the harvested blood, 50 µL plasma were prepared for all the samples and stored at -80 °C until needed. A previously developed LC–MS–MS method (see supporting information) was used to determine the plasma concentration of strasseriolide D as described below.
Ten millimolar (10 mM) DMSO stocks of strasseriolide D (the test compound) and strasseriolide A (used as internal standard,) were prepared. From the strasseriolide D stock, a 59.7 µM (27,000 ppb) working concentration was made in DMSO and an aliquot of this was serially diluted (½) in reconstitution solution (1:1 of acetonitrile: H2O with 0.1% formic acid) to create a six-point calibration curve in triplicate. Three different quality control (QC) concentrations of strasseriolide D at 59.7, 0.74, and 0.25 µM (i.e. 27,000 ppb, 333 ppb and 111 ppb) were also prepared in duplicate. From the strasseriolide A (internal standard) stock, a 6.2 µM (2700 ppb) working concentration was prepared in DMSO.
Blank mouse plasma (prepared from non-injected mouse) was retrieved from the freezer (− 80 °C) and kept on ice to thaw. The sample was vortexed adequately and 15 µL aliquots transferred into 0.7 mL Eppendorf tubes after which 35 µL of Milli-Q water were added and vortexed. Triplicate sets of the diluted plasma were then respectively spiked with 2 uL of each concentration of the calibration curves of strasseriolide D. Another triplicate set of the diluted plasma was spiked with 2 µL of each concentration of the standard QC solutions. All the above samples were also spiked with 2 µL of strasseriolide A (the internal standard)). To serve as blank samples, a fresh triplicate set of diluted plasma were spiked with 4 µL of DMSO. Non-matrix samples were also prepared by spiking 100 µL aliquots of reconstitution solution with 2 µL of the standard QC solutions and 2 µL of internal standard.
Fifteen microlitres (15 µL) plasma from the various time points of the strasseriolide D-injected mice, were respectively transferred into 0.7 mL Eppendorf tubes. To each sample, 37 µL of Milli-Q water were added, vortexed and spiked with 2 µL of strasseriolide A (internal standard). Two hundred microlitres (200 µL) of ice-cold acetonitrile were added to all of the matrix (plasma-containing) samples and centrifuged at 13,300 rpm for 15 min at 4 °C. Subsequently, 180 µL aliquots were carefully transferred (without disturbing the protein precipitate) from each tube into clean HPLC vials and evaporated to dryness in an EZ2 Genevac at room temperature. The dried samples were then reconstituted in 40 µL of reconstitution solution by vortexing. The samples were placed in an auto-sampler drawer for LC–MS–MS analysis and quantification of strasseriolide D (the test compound) in mice plasma.
(§2) Similar sample preparation and LC–MS–MS analysis were respectively performed for mice intravenously injected with strasseriolides A and C as test compounds and mice blood samples collected at 30 min (T 30 M), 2 h (T 2 h), 6 h (T 6 h) and 24 h (T 24 h). […] For strasseriolides A, B and C as test compounds; strasseriolides C, D and B were respectively used as internal standards. After LC–MS–MS analysis, the plasma concentration of compound vs. time data was determined for each strasseriolide.
116 Table S2. QC table used to calculate the precision and accuracy of the method.
Compound Expected No. Experimental STD % %
conc. in values mean conc. deviation CV Accuracy
118 (5) The mean recovery rate for the test compound (strasseriolide B) – this was calculated
119 to be 29 % by comparing the plasma QC peak area ratios at the established retention time […]

mice = experiment: In vivo toxicity in mice after i.v. injection; conditions: mouse, in vivo, iv, 25 mg/kg
Method: as §1, §2
Animals were observed individually at 15, 30 and 60 min after dosing and periodically during the first 24 h for any clinical signs of toxicity or mortality. The toxicity evaluation was carried out by observing behaviour parameters, including the Grimace scale parameters. The mice were sacrificed, and the main organs were examined by visual inspection during autopsy.

[2] = test system: transgenic P. berghei line 676m1cl1 (PbGFP-Luccon), ANKA strain; experiment: In vivo efficacy in P. berghei infected mice (luciferase activity); design: species or system Plasmodium berghei in Swiss Webster female mice; conditions: for Parasitaemia (Luminescence arbitrary units), Average ± SD: 4 days from 48 h post-infection; for in vivo activity (in words): strasseriolide D 22 mg/kg i.p. (p < 0.01 vs. vehicle), strasseriolide C 50 mg/kg i.p. (not statistically significant); for parasitaemia level lower compared to controls treated with vehicle: strasseriolide D 22 mg/kg i.p., strasseriolide C 50 mg/kg i.p., 4 days
Method: In vivo efficacy experiments were performed at the Anti-infectives Screening Core Services facility of the New York University School of Medicine. The transgenic P. berghei line 676m1cl1 parasite (PbGFP-Luccon) expressing the fusion GFP (mutant 3) and firefly luciferase (LucIAV) proteins generated in the reference clone of ANKA strain cl15cy1 was used. Swiss Webster female mice were infected with transgenic P. berghei line 676m1cl1 (PbGFP-Luccon) ANKA-infected 10³ red blood cells. Treatment was then started 48 h post-parasite infection by i.p. dosage of 22 mg/kg of strasseriolide D and 50 mg/kg of strasseriolide C. Vehicle only (PBS 2% methylcellulose, 0.5% Tween 80) and 20 mg/kg chloroquine were used as negative and positive controls. The infected mice were treated for four days, after which luciferase activity of the parasites was quantified 5 to 10 min after i.p. injection of 150 mg/kg D-Luciferin Potassium-salt (Goldbio) dissolved in PBS using an IVIS® Lumina II imager on the fifth day.
The Genedata Screener online application (Genedata AG, Basel, Switzerland) was used to compute IC50 values. The Smart Fit strategy with Hill model was selected as the choice for curve fitting. Where applicable, data are presented as mean ± standard deviation (SD). In Fig. 3, the significant differences between the vehicle controls and test compounds were calculated by the Student’s t test.

[3] = Balb/C, Calc. Conc. in plasma, individual mice
[4] = Balb/C, T1/2 (apparent terminal elimination half-life)

| Structure (SMILES) | AUC 0-t/0-inf_obs ([1]; Balb/C) | AUC(0-inf) ([1]; Balb/C) | C0 ([1]; Balb/C) | Clast_obs/Cmax ([1]; Balb/C) | Cmax ([1]; Balb/C) | MRT ([1]; Balb/C) | MRT inf ([1]; Balb/C) | Tmax ([1]; Balb/C) | Vss_obs ([1]; Balb/C) | Vz_obs (plasma distribution volume) ([1]; Balb/C) | k el ([1]; Balb/C) | AUC(0-t) ([1]; Balb/C, AUC 0-t) | AUC(0-t) ([1]; Balb/C, AUC0−t) | concentration at 24 h ([1]; Balb/C, Ave. Conc. in plasma) | concentration at 24 h [1, 3] | concentration at 24 h ([1]; Balb/C, Plasma Conc. @T24 h) | half-life [1, 4] | half-life ([1]; Balb/C, t1/2) | Cl_obs [1] | in vivo toxicity / mortality in mice (mice; Balb/C, 24 h) | other results |
| --- | --- | --- | --- | --- | --- | --- | --- | --- | --- | --- | --- | --- | --- | --- | --- | --- | --- | --- | --- | --- | --- |
| C/C1=C\[C@H](C)C(=O)C[C@@H](O)/C(C)=C/[C@H](C)C[C@@H](C)CC[C@@H]([C@@H](C)C(=O)O)OC(=O)[C@@H](C)C1 [Strasseriolide C, strasseriolide C] | 0.9595 | 359 ng·h/mL and 0.798 µM·h | 203 ng/mL and 452 nM | 0.01432 | 111 ng/mL and 246 nM | 4.7 h | 4.71 h | 0.5 h | 0.3281 (mg/kg)/(ng/ml) | 636.8 L/kg | 3.04e-05 s⁻¹ | 345 ng·h/mL and 0.766 µM·h | 0.766 µM·h | 3.54 nM | 2.04 ng/mL and 4.53 nM | 3.5 ± 0.9 nM | 6.3 h | 6.34 h | 0.06959 (mg/kg)/(ng/ml)/h | survived until 24 h post-i.v. injection | concentration at 0.5 h ([1]; Balb/C, Ave. Conc. in plasma): 246 nM; concentration at 2 h ([1]; Balb/C, Ave. Conc. in plasma): 40 nM; concentration at 6 h ([1]; Balb/C, Ave. Conc. in plasma): 24 nM; concentration at 0.5 h [1, 3]: 122 ng/mL and 271 nM; concentration at 2 h [1, 3]: 20.7 ng/mL and 46 nM; concentration at 6 h [1, 3]: 11.4 ng/mL and 23.1 nM; in vivo toxicity / mortality in mice (mice): non-toxic; Parasitaemia (Luminescence arbitrary units), Average ± SD ([2]; Table S7/Fig. 3A experiment: strasseriolide C 50 mg/kg i.p., chloroquine 20 mg/kg, read day 5, four replicates): 3.66 × 10^6 ± 2.23 × 10^6 Luminescence arbitrary units; in vivo activity (in words) [2]: moderate in vivo activity; parasitaemia level lower compared to controls treated with vehicle [2]: 30% |
| C/C1=C\[C@H](C)[C@@H](O)C[C@@H](O)/C(C)=C/[C@H](C)C[C@@H](C)CC[C@@H]([C@@H](C)C(=O)O)OC(=O)[C@@H](C)C1 [Strasseriolide D, strasseriolide D] | 0.8996 | 5050 ng·h/mL and 11.2 µM·h | 929 ng/mL and 2.06 µM | 0.08582 | 564 ng/mL and 1.25 µM | 8 h | 8.02 h | 1.5 h | 0.03969 (mg/kg)/(ng/ml) | 51.9 L/kg | 2.65e-05 s⁻¹ | 10.1 µM·h and 4550 ng·h/mL | 10.1 µM·h | 107 nM | 49.2 ng/mL and 109 nM | 107 ± 5 nM | 7.3 h | 7.27 h | 0.004946 (mg/kg)/(ng/ml)/h | survived until 24 h post-i.v. injection | concentration at 1.5 h ([1]; Balb/C, Ave. Conc. in plasma): 1250 nM; concentration at 5 h ([1]; Balb/C, Ave. Conc. in plasma): 389 nM; concentration at 5 h [1, 3]: 168 ng/mL and 431 nM; in vivo toxicity / mortality in mice (mice): non-toxic; Parasitaemia (Luminescence arbitrary units), Average ± SD ([2]; Table S8/Fig. 3B experiment: strasseriolide D 22 mg/kg i.p., chloroquine 20 mg/kg, read day 5, five replicates): 1.25 × 10^5 ± 1.04 × 10^5 Luminescence arbitrary units; Parasitaemia (Luminescence arbitrary units), single replicates ([2]; Table S8 experiment: strasseriolide D 22 mg/kg i.p., chloroquine 20 mg/kg, individual mice): 2.56 × 10^4 Luminescence arbitrary units and 6.93 × 10^3 Luminescence arbitrary units; in vivo activity (in words) [2]: significantly lowered parasitaemia in vivo; parasitaemia level lower compared to controls treated with vehicle [2]: 70% |
